Assay [1] can be described thus: compounds lowering EGFP fluorescence in F442A cells, dose response, counter-screen for p/CIP destabilizer project (AID 2005).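 Further: cells express EGFP alone from a CMV promoter as a counter screen for p/CIP-EGFP.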 The settings on record: F442A EGFP cells, EGFP fluorescence, 16 h, stronger effect = higher value. On the technique in general: Counterscreens check selectivity or assay interference.
For assay [2], the system named is F442A EGFP cells, EGFP fluorescence, 16 h. The description is as above.

The values that follow come from PubChem BioAssay AID2005 (Sanford-Burnham Center for Chemical Genomics, 2009).

Active and inactive are the calls of the source.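 How the source made its calls: active means plate Z score at or below -3, or inhibition of at least 30% at 20 µM; inactive means the rest.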

Usually inhibition stands for the change of the read-out against control, counted positive when it falls. The term IC50 denotes the midpoint of a concentration-inhibition curve. Regarding `O=C1C(Nc2ccccc2)=C/C(=N/S(=O)(=O)c2cccs2)c2ccccc21`, the inhibition in assay [1] (EGFP decrease, at 10 µM) was 62.1%. For the same compound, the IC50 in assay [2] was 10.4 µM.
Taken in the same sequence, the figures for `O=C1C(Cl)=C(NCCN2CCCCC2)C(=O)c2ccccc21` were 16.1% and 20.4 µM.
Taken in the same sequence, the figures for `COc1ccc(CS(=O)/C(Cl)=C(/Cl)C(=O)Nc2ccc(OC)nc2)cc1` (stereo unspecified) were -232% and 48 µM (inactive).
Taken in the same sequence, the figures for `CC1CCN(S(=O)(=O)c2ccc3c(c2)C(=NO)c2cc(S(=O)(=O)N4CCC(C)CC4)ccc2-3)CC1` were 68.9% and 7.46 µM.
As to `Cc1ccccc1NC1=C/C(=N\S(=O)(=O)c2cccs2)c2ccccc2C1=O`, in assay [1] (EGFP decrease, at 10 µM), the inhibition amounted to 66.7%. In addition, the concentration for half-maximal inhibition (IC50) in assay [2] is 13 µM.
For the compound `Cc1oc2c(c1C(=O)NCc1cccnc1)C(=O)c1ccccc1C2=O`, the inhibition in assay [1] (EGFP decrease, at 10 µM) came out at 72%. The IC50 in assay [2] is 5.99 µM.
Regarding `CCOC(=O)N=Nc1c2ccccc2c2nc3no[nH]c3nc12`, in assay [1] (EGFP decrease, at 10 µM), the inhibition was -20.6%. The half-maximal inhibitory concentration (IC50) in assay [2] is 35.5 µM.
The like results for `COc1ccc(NC(=O)/C(Cl)=C(/Cl)S(=O)Cc2ccc(Cl)cc2)cn1` (stereo unspecified) were, in that order, -168% and 49.9 µM (inactive).
The like results for `Nc1ccc2c(c1)C(=O)C(=O)c1ccccc1-2` were, in that order, 3.5% and 30.8 µM.
The like results for `CCOC(=O)c1c(C)[nH]c2c1-c1ccccc1C(=O)C2=O` were, in that order, 23.3% and 8.64 µM.
As for `Cc1ccc(NC2=C/C(=N\S(=O)(=O)c3cccs3)c3ccccc3C2=O)c(C)c1`, the inhibition in assay [1] (EGFP decrease, at 10 µM) was 60%. In assay [2], the concentration for half-maximal inhibition (IC50) is 16 µM.
Taken in the same sequence, the figures for `O=C1C(Nc2ccc(O)cc2)=C/C(=N/S(=O)(=O)c2cccs2)c2ccccc21` were 66% and 5.18 µM.
As to `CCN1CCN(Cc2ccc(NC(=O)c3cc(NC(=O)c4cncc(-c5ccc(C#N)cc5)c4)cc(OC)c3)cc2C(F)(F)F)CC1`, the inhibition was 3% in assay [1] (EGFP decrease, at 10 µM) and 11.7% (inactive) in assay [1] (at 20 µM).
For `O=C(COC(=O)COc1ccccc1)NCc1ccccc1`, the inhibition in assay [1] (EGFP decrease, at 10 µM) is 16.3%; in assay [1] (at 20 µM), 11.3% (inactive).
The like results for `CCN(CC(=O)N1CCOCC1)S(=O)(=O)c1ccccc1` were, in that order, 7.2% and -27.6% (inactive).
The like results for `CCOc1ccc(C(=O)N2CCc3cc(OC)c(OC)cc3C2)cc1OCC` were, in that order, 9.7% and 4.7% (inactive).
The like results for `CC(=O)c1ccc(NC(=O)NNS(=O)(=O)c2ccc([N+](=O)[O-])cc2)cc1` were, in that order, 16.8% and 22.1% (inactive).
In the case of `Cc1cc(C)n(C(=O)CNc2ccccc2Cl)n1`, the inhibition is 9% in assay [1] (EGFP decrease, at 10 µM) and 23.3% (inactive) in assay [1] (at 20 µM).
Taken in the same sequence, the figures for `O=[N+]([O-])c1ccc(-c2nnc(CNC3CCCC3)o2)cc1` were 17.3% and 25.1% (inactive).
Turning to `COc1ccc2[nH]c(=O)c(-c3noc(-c4ccccc4)n3)cc2c1`, the inhibition was 22.9% in assay [1] (EGFP decrease, at 10 µM) and 9.8% (inactive) in assay [1] (at 20 µM).
Taken in the same sequence, the figures for `Cc1ccc(NC(=S)Nc2cccc3cnccc23)cc1` were 2.1% and 26.8% (inactive).
Taken in the same sequence, the figures for `Cc1cc(NC(=O)CSc2ccc3nnc(-c4cccs4)n3n2)no1` were 10.8% and 15.9% (inactive).
Taken in the same sequence, the figures for `CCCCC(=O)NNC(=S)NC(=O)CCC` were 8.3% and 15.7% (inactive).
Consider `CC(=O)Nc1ccc(S(=O)(=O)Nc2nccs2)cc1`, for which the inhibition in assay [1] (EGFP decrease, at 10 µM) is 21.2%; in assay [1] (at 20 µM), 15.6% (inactive).
Consider `CC(C)CN(C(=O)c1cccc(F)c1)c1c(N)n(CC(C)C)c(=O)[nH]c1=O`, for which the inhibition in assay [1] (EGFP decrease, at 10 µM) is 32.3%; in assay [1] (at 20 µM), 18.5% (inactive).
The like results for `O=C(c1ccc(F)cc1)C1CCN(C(=O)c2c(F)cccc2F)CC1` were, in that order, 12.9% and 13.5% (inactive).
Taken in the same sequence, the figures for `C=CCC(NCc1ccco1)c1ccc(OC)cc1OC` (stereo unspecified) were 22.1% and -5.4% (inactive).
As to `CC(C)(C)c1cc[n+](C2=C([O-])c3ccccc3C(=O)/C2=N\S(=O)(=O)c2cccs2)cc1`, the inhibition in assay [1] (EGFP decrease, at 10 µM) was -4.5%. Moreover, the IC50 in assay [2] was 37.9 µM.
In the case of `Cc1ccc(Cn2c(SCC(C)C)nc3c2c(=O)[nH]c(=O)n3C)cc1`, the inhibition in assay [1] (EGFP decrease, at 10 µM) was 6.3%; in assay [1] (at 20 µM) it was 20.7% (inactive).
Taken in the same sequence, the figures for `COc1ccc(OC)c(Nc2ncnc3c2cnn3-c2ccccc2)c1` were 17.8% and 9.9% (inactive).
The like results for `Cc1cc(CN(C)C(=O)c2ccc3nc(Cc4ccccc4F)oc3c2)on1` were, in that order, 21.3% and 8.5% (inactive).
On to `C[C@H](NC(=O)OCc1ccccc1)c1nnc([C@H](C)NC(=O)OCc2ccccc2)o1`, for which the inhibition was -3.8% in assay [1] (EGFP decrease, at 10 µM) and -5.1% (inactive) in assay [1] (at 20 µM).
Taken in the same sequence, the figures for `Cc1ccc(S(=O)(=O)NCC(C)NS(=O)(=O)c2ccc(C)cc2)cc1` (stereo unspecified) were 34.7% and -7.7% (inactive).
Taken in the same sequence, the figures for `Cc1ccsc1C(=O)OCC(=O)N1CCc2ccccc2C1` were 5% and 13.3% (inactive).
The like results for `CCOC(=O)CCc1c(C)c2ccc(OCC(=O)N(CC)CC)c(C)c2oc1=O` were, in that order, 19.9% and 8.8% (inactive).
On to `O=CN1CCC(=O)N(Cc2ccccc2)c2ccccc21`, for which the inhibition was 33.4% in assay [1] (EGFP decrease, at 10 µM) and 23.1% (inactive) in assay [1] (at 20 µM).
Taken in the same sequence, the figures for `O=C1C2C3C=CC(C2C(=O)N1c1cccc(O)c1)C1C2C(=O)N(c4cccc(O)c4)C(=O)C2C31` (stereo unspecified) were -3% and 12.3% (inactive).
The like results for `Cc1ccccc1-c1cc2c(nn1)-c1ccccc1C2=O` were, in that order, 32.1% and 6.4% (inactive).
Taken in the same sequence, the figures for `C/C(=C/C=C/[C@@H](C)C(=O)O)[C@H]1CN[C@H](C(=O)O)[C@H]1CC(=O)O` were -8.3% and 10.3% (inactive).
As to `O=C(NCc1ccc(Cl)cc1)c1ccc(-c2ccccc2C(F)(F)F)o1`, the inhibition is 16.5% in assay [1] (EGFP decrease, at 10 µM) and -4.8% (inactive) in assay [1] (at 20 µM).
The like results for `O=C(CN1CCCCC1)N/N=C/c1cccc(Cl)c1` were, in that order, 13.5% and 17.4% (inactive).
Taken in the same sequence, the figures for `CNc1cc(C(F)(F)F)nc(-c2ccccn2)n1` were -1.6% and 22.4% (inactive).
The like results for `CC1CC(C)CN(c2ccc(NS(=O)(=O)c3ccccc3)cc2C(=O)O)C1` (stereo unspecified) were, in that order, 9.8% and 2.9% (inactive).
In the case of `CCOC(=O)c1c(C)n(C)c2cc(OCCN(CC)CC)ccc12`, the inhibition in assay [1] (EGFP decrease, at 10 µM) is -6%; in assay [1] (at 20 µM), 8.6% (inactive).
Taken in the same sequence, the figures for `COc1c[nH]n(C2CCCCC2)c(=O)c1=O` were 6.1% and -8.9% (inactive).
Taken in the same sequence, the figures for `Cc1ccc(CNC(=O)C2CCCCN2S(=O)(=O)c2ccccc2)cc1` (stereo unspecified) were -17.4% and 4.6% (inactive).
Taken in the same sequence, the figures for `COc1ccc(Cl)c(NC(=O)Nc2c(C)n(-c3ccccc3)c(=O)n2C)c1` were 8.4% and 26.9% (inactive).
`CS(=O)(=O)N(CC(=O)N1CCN(Cc2ccc3c(c2)OCO3)CC1)c1ccc2c(c1)OCO2`: the inhibition was 15.1% in assay [1] (EGFP decrease, at 10 µM) and -15.1% (inactive) in assay [1] (at 20 µM).
Taken in the same sequence, the figures for `CC1CCC(NCc2ccco2)CC1` (stereo unspecified) were -0.9% and 18.9% (inactive).
`C[C@@H](C(=O)N1CCN(C(=O)OC(C)(C)C)CC1)n1cc(-c2cn([C@@H](C)C(=O)N3CCN(C(=O)OC(C)(C)C)CC3)nn2)nn1`: the inhibition was 38.2% in assay [1] (EGFP decrease, at 10 µM) and 25.3% (inactive) in assay [1] (at 20 µM).
The like results for `CCN(C(=O)COC(=O)c1cc(NS(=O)(=O)c2ccc(Cl)c([N+](=O)[O-])c2)ccc1O)C1CCCCC1` were, in that order, 13.6% and 6.6% (inactive).
Taken in the same sequence, the figures for `Cc1cc(C)cc(N2C(=O)N(c3ccccc3C)C3CS(=O)(=O)CC32)c1` (stereo unspecified) were 9.1% and 28.7% (inactive).
For the compound `CC(OC(=O)C1CC1)C(=O)Nc1ccc([N+](=O)[O-])cc1Cl` (stereo unspecified), the inhibition is 14.2% in assay [1] (EGFP decrease, at 10 µM) and 3.9% (inactive) in assay [1] (at 20 µM).
